According to patent US20240352021A1 (DANA-FARBER CANCER INSTITUTE, INC., priority 2021, published 2024):
One block for each molecule: values may come before it.

How the values were obtained:
[1] = molecular target: EGFR L858R/C797S Ba/F3 cells (Homo sapiens, UniProt P00533, C797S/L858R, cells depend on it); assay: Ba/F3 cell proliferation (Cell Titer Glo), EGFR L858R/C797S; assay type: cell-based, murine; settings: 72 hours, Table 6
From the text: (§1) The EGFR mutant L858R Ba/F3 cells have been previously described (Zhou, W., et al. Nature 462, 2009, 1070-1074). The EGFR C797S and C775S mutations were introduced via site directed mutagenesis using the Quick Change Site-Directed Mutagenesis kit into a vector containing EGFR L858R mutation (Stratagene; La Jolla, CA) according to the manufacturer's instructions. All constructs were confirmed by DNA sequencing. The constructs were then shuttled into the retroviral vector JP1540 by either using the Cre-recombination system (Agilent Technologies, Santa Clara, CA) or the In-fusion HD Cloning kit (Takara Bio USA, Inc.; Mountain view, CA). Ba/F3 cells were then infected with retrovirus per standard protocols, as described previously (Zhou, et al, Nature 2009). Stable clones were obtained by selection in puromycin (2 μg/ml). All BaF/3 mutant cells were maintained in RPMI 1640 (Cellgro; Mediatech Inc., Herndon, CA) supplemented with 10% FBS, 100 units/mL penicillin, 100 units/mL streptomycin.
(§2) Growth and inhibition of growth was assessed by the Cell Titer Glo assay (Promega, Madison, WI) and was performed according to the manufacturer's instructions. The Cell Titer Glo assay is a luminescence-based method used to determine the number of viable cells based on quantitation of the ATP present, which is directly proportional to the amount of metabolically active cells present. Ba/F3 cells of different EGFR genotypes were exposed to compounds for 72 hours and the number of cells used per experiment was determined empirically as has been previously established (Zhou, et al., Nature 2009). All experimental points were set up in triplicates in 384-well plates. […] The curves were fitted using a non-linear regression model with a sigmoidal dose response.
(§3) Ba/F3 cells assay data are provided below in Table 5 and Table 6. For inhibitory activity against EGFR mutants, the following designations are used: <0.1 μM=A, 0.1 μM˜0.5 μM=B, 0.5 μM˜2.5 μM=C, ≥2.5 μM=D

[2] = molecular target: EGFR mutant L858R Ba/F3 cells (Homo sapiens, UniProt P00533, L858R, cells depend on it); assay: Ba/F3 cell proliferation (Cell Titer Glo), EGFR L858R; assay type: cell-based, murine; settings: 72 hours, Table 6, read-out: L858R BaF3
From the text: as §1, §2, §3

EGFR L858R/C797S Ba/F3 cells, sequence (P00533 whole entry C797S/L858R, the tested form may be a part): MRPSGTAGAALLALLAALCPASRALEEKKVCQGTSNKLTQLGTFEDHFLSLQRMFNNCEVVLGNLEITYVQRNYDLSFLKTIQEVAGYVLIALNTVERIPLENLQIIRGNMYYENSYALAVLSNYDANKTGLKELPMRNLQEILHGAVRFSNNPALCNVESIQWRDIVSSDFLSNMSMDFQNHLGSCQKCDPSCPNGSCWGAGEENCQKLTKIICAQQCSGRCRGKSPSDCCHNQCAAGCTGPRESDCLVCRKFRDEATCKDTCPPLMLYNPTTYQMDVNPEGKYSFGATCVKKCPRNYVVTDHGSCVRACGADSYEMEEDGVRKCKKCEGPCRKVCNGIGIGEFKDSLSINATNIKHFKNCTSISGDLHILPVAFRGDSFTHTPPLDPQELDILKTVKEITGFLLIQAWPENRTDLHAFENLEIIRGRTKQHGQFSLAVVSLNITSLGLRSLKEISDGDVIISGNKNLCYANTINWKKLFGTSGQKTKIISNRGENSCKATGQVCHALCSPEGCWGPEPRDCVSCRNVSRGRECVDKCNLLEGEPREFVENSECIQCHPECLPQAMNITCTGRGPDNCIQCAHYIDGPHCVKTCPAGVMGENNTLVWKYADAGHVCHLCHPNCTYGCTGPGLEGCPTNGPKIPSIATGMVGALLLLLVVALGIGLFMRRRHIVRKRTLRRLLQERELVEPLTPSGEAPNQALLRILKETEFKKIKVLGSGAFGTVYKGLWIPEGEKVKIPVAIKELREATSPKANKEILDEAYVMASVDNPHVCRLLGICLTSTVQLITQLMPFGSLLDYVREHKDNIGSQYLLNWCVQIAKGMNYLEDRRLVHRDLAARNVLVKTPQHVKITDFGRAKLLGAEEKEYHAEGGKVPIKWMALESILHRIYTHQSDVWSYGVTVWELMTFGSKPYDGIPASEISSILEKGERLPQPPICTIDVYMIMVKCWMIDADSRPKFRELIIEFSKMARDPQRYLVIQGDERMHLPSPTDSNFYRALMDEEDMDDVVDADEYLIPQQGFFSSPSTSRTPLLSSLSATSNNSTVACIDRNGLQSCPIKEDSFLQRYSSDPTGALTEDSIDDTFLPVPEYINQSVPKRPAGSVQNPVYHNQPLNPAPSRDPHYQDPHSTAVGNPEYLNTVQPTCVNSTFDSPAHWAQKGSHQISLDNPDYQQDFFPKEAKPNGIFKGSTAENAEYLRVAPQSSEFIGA
EGFR mutant L858R Ba/F3 cells, sequence (P00533 whole entry L858R): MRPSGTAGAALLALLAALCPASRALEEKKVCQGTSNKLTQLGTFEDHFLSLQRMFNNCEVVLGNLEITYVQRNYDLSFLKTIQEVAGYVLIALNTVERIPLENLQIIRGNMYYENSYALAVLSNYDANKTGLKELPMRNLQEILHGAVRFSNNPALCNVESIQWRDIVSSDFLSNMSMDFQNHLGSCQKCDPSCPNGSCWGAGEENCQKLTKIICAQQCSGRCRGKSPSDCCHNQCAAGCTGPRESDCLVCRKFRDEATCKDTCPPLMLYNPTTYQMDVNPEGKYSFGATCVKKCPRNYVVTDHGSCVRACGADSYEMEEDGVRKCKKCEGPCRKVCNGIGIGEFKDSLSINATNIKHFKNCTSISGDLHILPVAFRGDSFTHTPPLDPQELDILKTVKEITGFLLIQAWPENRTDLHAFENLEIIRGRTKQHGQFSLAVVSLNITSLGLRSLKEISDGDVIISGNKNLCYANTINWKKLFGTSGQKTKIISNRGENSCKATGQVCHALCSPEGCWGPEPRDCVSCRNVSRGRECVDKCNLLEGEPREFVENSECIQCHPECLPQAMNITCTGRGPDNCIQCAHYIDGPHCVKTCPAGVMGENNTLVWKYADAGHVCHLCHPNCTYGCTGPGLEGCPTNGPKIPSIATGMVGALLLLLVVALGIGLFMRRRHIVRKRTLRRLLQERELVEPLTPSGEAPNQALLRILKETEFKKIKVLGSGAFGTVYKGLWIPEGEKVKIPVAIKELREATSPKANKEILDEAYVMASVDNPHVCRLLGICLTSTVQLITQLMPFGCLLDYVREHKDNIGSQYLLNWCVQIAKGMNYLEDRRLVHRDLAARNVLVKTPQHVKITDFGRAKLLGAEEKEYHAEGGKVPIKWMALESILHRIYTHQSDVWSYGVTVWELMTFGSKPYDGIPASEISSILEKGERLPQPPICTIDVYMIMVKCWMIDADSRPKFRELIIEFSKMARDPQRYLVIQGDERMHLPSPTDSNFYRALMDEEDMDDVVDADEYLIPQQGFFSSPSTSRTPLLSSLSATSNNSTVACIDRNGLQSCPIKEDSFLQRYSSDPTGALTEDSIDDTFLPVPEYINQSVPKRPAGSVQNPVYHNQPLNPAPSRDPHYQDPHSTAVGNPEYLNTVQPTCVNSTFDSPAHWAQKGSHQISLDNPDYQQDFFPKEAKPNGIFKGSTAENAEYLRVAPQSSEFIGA

Compound: C=CC(=O)N1CCC(N2Cc3cnc(Nc4ccc(N5CCN(C)CC5)cc4)nc3N(C)C2=O)CC1 [Compound 054]
GI50 [1]: ≥ 2.5 µM | GI50 [2]: ≥ 2.5 µM

Compound: C/C=C/C(=O)N1CC[C@H](N2Cc3cnc(Nc4ccc(N5CCN(C)CC5)cc4)nc3N(C)C2=O)c2ccccc21 [Compound 091]
GI50 [1]: 0.1 to 0.5 µM | GI50 [2]: 0.1 to 0.5 µM

Compound: C=CC(=O)N1CCC(N2Cc3cnc(Nc4ccc(N5CCN(C)CC5)c(-c5cnn(C)c5)c4)nc3N(C)C2=O)c2ccccc21 (stereo not drawn) [Compound 052, 1-methyl-7-[4-(4-methylpiperazin-1-yl)-S-(1-methylpyrazol-4-yl)anilino]-S-(1-prop-2-enoyl-3,4-dihydro-2H-quinolin-4-yl)-4H-pyrimido[4,5-d]pyrimidin-2-one]
GI50 [1]: 0.1 to 0.5 µM | GI50 [2]: < 0.1 µM

Compound: C=CC(=O)N1CC2(CC(N3Cc4cnc(Nc5ccc(N6CCN(C)CC6)cc5)nc4N(C)C3=O)C2)C1 [Compound 053]
GI50 [1]: ≥ 2.5 µM | GI50 [2]: ≥ 2.5 µM

Compound: C=CC(=O)Nc1cccc2[nH]cc(CN3Cc4cnc(Nc5ccc(N6CCN(C)CC6)cc5)nc4N(C)C3=O)c12 [Compound 050]
GI50 [1]: ≥ 2.5 µM | GI50 [2]: ≥ 2.5 µM

Compound: C=CC(=O)N1CCC(N2Cc3cnc(Nc4ccc(N5CCN(C)CC5)cc4)nc3N(C)C2=O)c2cccc(OC)c21 (stereo not shown) [Compound 100, 3-(8-methoxy-1-prop-2-enoyl-3,4-dihydro-2H-quinolin-4-yl)-1-methyl-7-[4-(4-methylpiperazin-1-yl)anilino]-4H-pyrimido[4,5-d]pyrimidin-2-one]
GI50 [1]: < 0.1 µM | GI50 [2]: < 0.1 µM

Compound: C=CC(=O)N1CCC(N2Cc3cnc(Nc4ccc(OCCN5CCCC5)cc4)nc3N(C)C2=O)c2ccccc21 (stereo not shown) [Compound 068]
GI50 [1]: < 0.1 µM | GI50 [2]: < 0.1 µM

Compound: C=CC(=O)N1CCC(N2Cc3cnc(Nc4ccc(N5CCN(C)CC5)cc4)nc3N(C3CCCC3)C2=O)c2ccccc21 (stereo not drawn) [Compound 057, 1-cyclopentyl-7-[4-(4-methylpiperazin-1-yl)anilino]-S-(1-prop-2-enoyl-3,4-dihydro-2H-quinolin-4-yl)-4H-pyrimido[4,5-d]pyrimidin-2-one]
GI50 [1]: < 0.1 µM | GI50 [2]: < 0.1 µM

Compound: CN(C)C/C=C/C(=O)N1CCC(N2Cc3cnc(Nc4ccc(N5CCN(C)CC5)cc4)nc3N(C)C2=O)c2ccccc21 (stereo not shown) [Compound 065]
GI50 [1]: 0.5 to 2.5 µM | GI50 [2]: 0.5 to 2.5 µM

Compound: C=CC(=O)N1CCC(N2Cc3cnc(Nc4ccc(N5CCN(C)CC5)c(C(F)(F)F)c4)nc3N(C)C2=O)c2ccccc21 (stereo not shown) [Compound 071]
GI50 [1]: < 0.1 µM | GI50 [2]: < 0.1 µM

Compound: C=CC(=O)N1CCC(N2Cc3cnc(Nc4ccc(N5CCN(C)C6(CC6)C5)cc4)nc3N(C)C2=O)c2ccccc21 (stereo not drawn) [Compound 085, 1-methyl-7-[4-(4-methyl-4,7-diazaspiro[2.5]octan-7-yl)anilino]-S-(1-prop-2-enoyl-3,4-dihydro-2H-quinolin-4-yl)-4H-pyrimido[4,5-d]pyrimidin-2-one]
GI50 [1]: < 0.1 µM | GI50 [2]: < 0.1 µM

Compound: C=CC(=O)N1CCC(N2Cc3cnc(Nc4cccc(N5CCN(C)CC5)c4)nc3N(C)C2=O)c2ccccc21 (stereo not shown) [Compound 073]
GI50 [1]: < 0.1 µM | GI50 [2]: < 0.1 µM

Compound: C=CC(=O)N1CCC(N2Cc3cnc(Nc4ccc(C5CCN(C)CC5)cc4)nc3N(C)C2=O)c2ccccc21 (stereo not shown) [Compound 066]
GI50 [1]: < 0.1 µM | GI50 [2]: < 0.1 µM

Compound: C=CC(=O)N1CCC(N2Cc3cnc(Nc4cc(F)c(N5CCN(C)CC5)c(F)c4)nc3N(C)C2=O)c2ccccc21 (stereo not shown) [Compound 072]
GI50 [1]: < 0.1 µM | GI50 [2]: < 0.1 µM

Compound: C/C=C(\C#N)C(=O)N1CC[C@H](N2Cc3cnc(Nc4ccc(N5CCN(C)CC5)cc4)nc3N(C)C2=O)c2ccccc21 [Compound 101]
GI50 [1]: ≥ 2.5 µM | GI50 [2]: ≥ 2.5 µM

Compound: C=CC(=O)N1CCC(N2Cc3cnc(Nc4ccc(N5CCN(C)CC5)cn4)cc3N(C)C2=O)c2ccccc21 (stereo not drawn) [Compound 086, 1-methyl-7-[[5-(4-methylpiperazin-1-yl)-2-pyridyl]amino]-S-(1-prop-2-enoyl-3,4-dihydro-2H-quinolin-4-yl)-4Hpyrido[4,3-d]pyrimidin-2-one]
GI50 [1]: < 0.1 µM | GI50 [2]: < 0.1 µM

Compound: C=CC(=O)Nc1cn(C)nc1CN1Cc2cnc(Nc3ccc(N4CCN(C)CC4)cc3)nc2N(C)C1=O [Compound 046]
GI50 [1]: ≥ 2.5 µM | GI50 [2]: ≥ 2.5 µM

Compound: C=CC(=O)N1CCC(N2Cc3cnc(Nc4ccc(N5CCN(C)CC5)cc4OC(F)(F)F)nc3N(C)C2=O)c2ccccc21 (stereo not shown) [Compound 087]
GI50 [1]: < 0.1 µM | GI50 [2]: < 0.1 µM

Compound: C=C(C)C(=O)N1CC[C@H](N2Cc3cnc(Nc4ccc(N5CCN(C)CC5)cc4)nc3N(C)C2=O)c2ccccc21 [Compound 090]
GI50 [1]: 0.5 to 2.5 µM | GI50 [2]: 0.5 to 2.5 µM

Compound: C=CC(=O)N1CCC(N2Cc3cnc(Nc4ccc(N5CCN(C)CC5)cc4)nc3N(C)C2=O)C2(CCC2)C1 (stereo not shown) [Compound 094]
GI50 [1]: ≥ 2.5 µM | GI50 [2]: ≥ 2.5 µM

Compound: C/C=C(\F)C(=O)N1CC[C@H](N2Cc3cnc(Nc4ccc(N5CCN(C)CC5)cc4)nc3N(C)C2=O)c2ccccc21 [Compound 097]
GI50 [1]: 0.5 to 2.5 µM | GI50 [2]: 0.1 to 0.5 µM

Compound: C=CC(=O)N1CCC(N2Cc3cnc(Nc4ccc(N5CCN(C)CC5)cc4)nc3N(C)C2=O)CC12CCC2 (stereo not drawn) [Compound 089, 1-methyl-7-[4-(4-methylpiperazin-1-yl)anilino]-S-(5-prop-2-enoyl-5-azaspiro[3.5]nonan-8-yl)-4H-pyrimido[4,5-d]pyrimidin-2-one]
GI50 [1]: ≥ 2.5 µM | GI50 [2]: ≥ 2.5 µM

Other lines, results leading:

GI50 [1]: ≥ 2.5 µM | GI50 [2]: ≥ 2.5 µM
Compound: C=CC(=O)N1CCC(N2Cc3cnc(Nc4ccc(S(=O)(=O)NCCO)cc4)nc3N(C)C2=O)c2ccccc21 (stereo not shown) [Compound 084]

GI50 [1]: ≥ 2.5 µM | GI50 [2]: 0.5 to 2.5 µM
Compound: [2H]C1(N2Cc3cnc(Nc4cnn(CCO)c4)nc3N(C)C2=O)CCN(C(=O)C=C)c2c(OC)cccc21 (stereo not shown) [Compound 129, 3-(4-deuterio-8-methoxy-1-prop-2-enoyl-2,3-dihydroquinolin-4-yl)-7-[[1-(2-hydroxyethyl)pyrazol-4-yl]amino]-1-methyl-4H-pyrimido[4,5-d]pyrimidin-2-one]

GI50 [1]: ≥ 2.5 µM | GI50 [2]: ≥ 2.5 µM
Compound: C=CC(=O)N1CCC(C)(N2Cc3cnc(Nc4cnn(CCO)c4)nc3N(C)C2=O)c2ccccc21 (stereo not drawn) [Compound 112, 7-[[1-(2-hydroxyethyl)pyrazol-4-yl]amino]-1-methyl-S-(4-methyl-1-prop-2-enoyl-2,3-dihydroquinolin-4-yl)-4H-pyrimido[4,5-d]pyrimidin-2-one]

GI50 [1]: < 0.1 µM | GI50 [2]: < 0.1 µM
Compound: C=C(F)C(=O)N1CC[C@H](N2Cc3cnc(Nc4cnn(CCO)c4)nc3N(CC(F)F)C2=O)c2ccccc21 [Compound 110, 1-(2,2-difluoroethyl)-S-[(4S)-1-(2-fluoroprop-2-enoyl)-3,4-dihydro-2H-quinolin-4-yl]-7-[[1-(2-hydroxyethyl)pyrazol-4-yl]amino]-4H-pyrimido[4,5-d]pyrimidin-2-one]

GI50 [1]: ≥ 2.5 µM | GI50 [2]: ≥ 2.5 µM
Compound: CN1CCN(c2ccc(Nc3ncc4c(n3)N(C)C(=O)N([C@H]3CCN(C(=O)CC#N)c5ccccc53)C4)cc2)CC1 [Compound 096]

GI50 [1]: < 0.1 µM | GI50 [2]: < 0.1 µM
Compound: C=CC(=O)N1CCC(N2Cc3cnc(Nc4ccc5c(c4)CCN(C)C5)nc3N(C)C2=O)c2ccccc21 (stereo not shown) [Compound 080]

GI50 [1]: 0.1 to 0.5 µM | GI50 [2]: < 0.1 µM
Compound: [2H]C1(N2Cc3cnc(Nc4cnn(CCO)c4)nc3N(C3CC3)C2=O)CCN(C(=O)C(=C)F)c2ccccc21 (stereo not drawn) [Compound 113, 1-cyclopropyl-S-[4-deuterio-1-(2-fluoroprop-2-enoyl)-2,3-dihydroquinolin-4-yl]-7-[[1-(2-hydroxyethyl)pyrazol-4-yl]amino]-4H-pyrimido[4,5-d]pyrimidin-2-one]

GI50 [1]: < 0.1 µM | GI50 [2]: < 0.1 µM
Compound: C=CC(=O)N1CCC(N2Cc3cnc(Nc4cccc(OC(F)F)c4)nc3N(C)C2=O)c2ccccc21 (stereo not shown) [Compound 081]

GI50 [1]: < 0.1 µM | GI50 [2]: < 0.1 µM
Compound: C=C(F)C(=O)N1CC[C@H](N2Cc3cnc(Nc4cnn(CCO)c4)nc3N(C)C2=O)c2ccccc21 [Compound 093]

GI50 [1]: ≥ 2.5 µM | GI50 [2]: ≥ 2.5 µM
Compound: CN1C(=O)N([C@H]2CCN(C#N)c3ccccc32)Cc2cnc(Nc3cnn(CCO)c3)nc21 [Compound 103]

GI50 [1]: ≥ 2.5 µM | GI50 [2]: ≥ 2.5 µM
Compound: CN1C(=O)N([C@H]2CCN(C(=O)CC#N)c3ccccc32)Cc2cnc(Nc3cnn(CCO)c3)nc21 [Compound 104]

GI50 [1]: < 0.1 µM | GI50 [2]: < 0.1 µM
Compound: C=CC(=O)N1CCC(N2Cc3cnc(Nc4cnn(C)c4)nc3N(C)C2=O)c2ccccc21 (stereo not shown) [Compound 061]

GI50 [1]: ≥ 2.5 µM | GI50 [2]: ≥ 2.5 µM
Compound: CN1C(=O)N(C2CN(C#N)c3ccccc32)Cc2cnc(Nc3cnn(CCO)c3)nc21 (stereo not shown) [Compound 106, 3-[7-[[1-(2-hydroxyethyl)pyrazol-4-yl]amino]-1-methyl-2-oxo-4H-pyrimido[4,5-d]pyrimidin-S-yl]indoline-1-carbonitrile]
